{"source": "patent US20050070606A1", "about": "“Pharmaceutical agent for mitochondrial disorders” (Ajinomoto Co., Inc., priority 2002, published 2005)", "key": {"[1]": {"tested_on": "mRNAs of the proteins involved in the TCA cycle of liver mitochondria and the ATP generation in the electron transfer system", "assay": "Expression of the genes for mitochondrial ATP generation-associated proteins (Taqman-PCR) in liver of rats after partial 70% hepatectomy", "assay_type": "in vivo, rat", "settings": "male F344 rats after partial 70% hepatectomy; L-alanine 2 g/10 ml/kg orally 18 and 21 hours after hepatectomy; liver at 24 hours; compared with the non-administered group; FIG. 1", "method": "Male F344/DvCrj (Fischer) rats (age 6 weeks and body weight of 120 g) were preliminarily fed with CRF-1 (Oriental Yeast) and water for 6 weeks. Subsequently, the rats were divided in two groups of equal body weight. According to the Higgins-Anderson method (see Higgins, G. M. and Anderson, R. M., 1931, Arch. Pathol. 12: 186-191), partial 70% hepatectomy (left lobe, intermediate lobe) was performed. 18 and 21 hours after the partial hepatectomy, L-alanine at 2 g/10 ml/kg body weight in aqueous 0.3% carboxymethyl cellulose solution was administered orally (group 1), while only the aqueous 0.3% carboxymethyl cellulose solution was administered to the control group (group 2). 24 hours after the partial hepatectomy, anatomy was performed. The rats were killed by exsanguination under anesthesia and then the liver was resected and weighed. Subsequently, the liver was frozen and stored for assaying mRNA expression by the Taqman-PCR method.\nTo homogenize the liver, 10 ml ISOGEN (Nippon Gene) was added per 1 g of rat liver. […]\nThe Taqman PCR reactions were performed in duplicate to calculate the cycle time (CT) exceeding the threshold. […] By the following formula, the relative expression level was determined: Relative expression level=2^(30-CT sample)\nFurther, the relative value of the expression level of each gene was determined when the relative expression level of β-actin was defined as 1000."}, "[2]": {"biological_target": "T1, COX (cytochrome C oxidase) (Rattus norvegicus, UniProt P00406+P05503)", "T1 construct": "from tissue; host or cells: mitochondrial suspension (liver according to the earlier reading)", "T1 sequence (P00406 whole entry, other chains not shown)": "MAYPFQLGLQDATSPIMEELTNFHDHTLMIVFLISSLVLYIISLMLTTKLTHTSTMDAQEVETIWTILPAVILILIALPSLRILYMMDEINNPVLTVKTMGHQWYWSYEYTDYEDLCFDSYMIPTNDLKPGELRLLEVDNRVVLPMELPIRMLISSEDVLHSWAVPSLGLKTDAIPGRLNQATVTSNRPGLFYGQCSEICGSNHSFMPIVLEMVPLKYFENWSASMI", "assay": "Assaying COX (cytochrome C oxidase) activity in liver mitochondrial suspension", "assay_type": "biochemical", "settings": "rat liver mitochondria 2.5 μg, reduced cytochrome c, FIG. 3", "method": "As described in Example 2, a mitochondrial suspension was prepared and adjusted to 0.1 mg/ml. 25 μl (2.5 μg) of mitochondria was blended with 950 μl of an assay buffer (10 mM Tris-HCl, pH 7.0, 120 mM KCl), to which various concentrations of L-alanine were added. 50 μl of cytochrome c (0.22 mM) reduced with 10 mg/ml sodium hydroxysulfite was added, and the resulting mixture was inversed and mixed together to start reaction. Immediately, the absorbance (550 nm) was counted continuously for one minute with a spectrophotometer, to record the decrease of the absorbance."}, "[3]": {"tested_on": "mitochondrial membrane potential", "assay": "Assaying mitochondrial membrane potential (JC-1 fluorescence) in liver mitochondrial suspension", "assay_type": "biochemical", "settings": "rat liver mitochondria 2 μg; various concentrations of L-alanine; excitation 490 nm, emission 590 nm; FIG. 2", "method": "A male SD (IGS) rat of age 8 weeks was killed by exsanguination under ether anesthesia and then the liver was resected and washed twice with 1×Extraction Buffer A (10 mM HEPES (2-[4-(2-hydroxyethyl)-1-piperazinyl]ethanesulfonic acid, pH 7.5, 200 mM mannitol, 70 mM sucrose, 1 mM EGTA (ethylene glycol bis(β-aminoethyl ether)-N, N,N,N-tetraacetic acid). The liver was subsequently cut into a piece of about 100 mg and weighed, which was then cut into smaller pieces in a 5-ml tube.\nA 10-fold volume of 1×Extraction Buffer A (containing 2 mg/ml albumin) was added to the tube and the liver was homogenized at a low speed on ice (15 seconds). The resulting homogenate was transferred into an Eppendorf tube for centrifugation at 600 g at 4° C. for 5 minutes. The supernatant was transferred to a new tube for centrifugation at 11,000 g and 4° C. for 10 minutes. After the supernatant was discarded, the precipitate was suspended in a 10-fold volume of 1×Extraction Buffer A. The procedure from centrifugation at 600 g and 4° C. for 5 minutes to centrifugation at 11,000 g and 4° C. for 10 minutes was repeated. […]\nThe resulting suspension was defined as the mitochondrial suspension for the following experiments. […] For assaying fluorescence intensity (excitation at 490 nm; emission at 590 nm), 2 μl of JC-1 (1 μg/ml) was added and incubated at ambient temperature for 7 minutes."}}, "data": [{"compound": "C[C@H](N)C(=O)O", "note": "[L-alanine]", "values": [{"measurement": "mRNAs of the proteins involved in the TCA cycle of liver mitochondria and the ATP generation in the electron transfer system", "setting": "[1]", "result": "significantly increased"}, {"measurement": "concentration from which COX activity was increased", "setting": "[2]; absorbance at 550 nm", "result": "≥ 2.5", "unit": "mM"}, {"measurement": "COX activity", "setting": "[2]; decrease of absorbance at 550 nm for one minute, various concentrations of L-alanine", "result": "increased the COX activity in a concentration-dependent manner"}, {"measurement": "fluorescence intensity of JC-1 (mitochondrial membrane potential)", "setting": "[3]", "result": "increased in an L-alanine concentration-dependent manner"}]}]}
